How the values were obtained:
Lipoxygenase = Lipoxygenase (Solanum tuberosum, UniProt O49150); assay: Colorimetric 5-LO Assay
Method: A colorimetric 5-LO assay kit (Lipoxygenase Inhibitor Screening Assay Kit) and potato 5-LO isolate were purchased from Cayman Chemicals (Ann Arbor, MI). 5-LO inhibition assay was performed according to the instruction manuals. All samples were dissolved in dimethyl sulfoxide, except for 1 and 2, which were dissolved in the assay buffers provided. All assays were performed in triplicate, and errors were calculated as standard deviation.

Histone deacetylase 1 = Histone deacetylase 1 (Homo sapiens, UniProt Q13547); assay: Fluorometric Activity Assay
Chain of Histone deacetylase 1 (Q13547 whole entry): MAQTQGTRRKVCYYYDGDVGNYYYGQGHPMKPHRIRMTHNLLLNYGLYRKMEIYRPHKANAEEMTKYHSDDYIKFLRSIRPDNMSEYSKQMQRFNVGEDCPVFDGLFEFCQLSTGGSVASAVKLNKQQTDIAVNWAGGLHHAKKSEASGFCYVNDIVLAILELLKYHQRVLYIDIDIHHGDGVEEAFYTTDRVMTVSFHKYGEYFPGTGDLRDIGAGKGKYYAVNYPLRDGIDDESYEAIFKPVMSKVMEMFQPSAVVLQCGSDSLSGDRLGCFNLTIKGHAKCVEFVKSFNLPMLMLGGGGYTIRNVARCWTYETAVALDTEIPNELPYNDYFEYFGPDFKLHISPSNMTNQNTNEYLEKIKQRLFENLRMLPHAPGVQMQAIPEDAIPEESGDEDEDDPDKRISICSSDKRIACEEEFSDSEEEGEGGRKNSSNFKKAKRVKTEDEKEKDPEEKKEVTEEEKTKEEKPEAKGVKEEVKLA
Method: A FLUOR DE LYS fluorometric activity assay kit (HDAC source: HeLa cell nuclear extract) and a FLUOR DE LYS HDAC1 fluorometric drug discovery assay kit (HDAC source: human recombinant HDAC1) were purchased from Enzo Life Sciences (Farmingdale, NY). HDAC inhibition assay was performed according to the instruction manuals. All samples were dissolved in dimethyl sulfoxide, except for 1 and 2, which were dissolved in the assay buffers provided. All assays were performed in triplicate, and errors were calculated as standard deviation.

Chain of Lipoxygenase (O49150 whole entry): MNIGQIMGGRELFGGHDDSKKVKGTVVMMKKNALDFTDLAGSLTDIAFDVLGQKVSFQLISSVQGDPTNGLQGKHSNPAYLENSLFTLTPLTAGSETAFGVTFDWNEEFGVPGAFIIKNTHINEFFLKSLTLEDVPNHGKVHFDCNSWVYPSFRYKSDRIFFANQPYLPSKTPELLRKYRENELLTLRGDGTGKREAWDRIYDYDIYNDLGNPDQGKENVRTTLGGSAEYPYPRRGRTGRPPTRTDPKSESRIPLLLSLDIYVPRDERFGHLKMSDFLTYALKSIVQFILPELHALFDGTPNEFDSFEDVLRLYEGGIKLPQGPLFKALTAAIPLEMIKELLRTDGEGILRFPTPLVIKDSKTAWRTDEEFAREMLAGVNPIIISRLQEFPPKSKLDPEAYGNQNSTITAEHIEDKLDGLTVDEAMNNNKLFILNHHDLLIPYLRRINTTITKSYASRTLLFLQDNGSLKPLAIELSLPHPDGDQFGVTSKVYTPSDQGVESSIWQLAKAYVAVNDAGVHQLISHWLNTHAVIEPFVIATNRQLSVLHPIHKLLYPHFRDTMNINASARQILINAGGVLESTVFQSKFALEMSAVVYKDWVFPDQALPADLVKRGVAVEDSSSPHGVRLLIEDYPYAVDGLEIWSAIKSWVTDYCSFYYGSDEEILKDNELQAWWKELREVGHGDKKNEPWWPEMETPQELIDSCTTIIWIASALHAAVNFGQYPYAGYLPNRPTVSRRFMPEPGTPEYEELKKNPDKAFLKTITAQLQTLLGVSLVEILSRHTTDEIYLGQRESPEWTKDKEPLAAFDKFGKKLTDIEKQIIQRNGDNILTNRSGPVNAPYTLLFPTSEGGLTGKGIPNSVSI

Row | Structure (SMILES) | IC50 (Lipoxygenase) [µM] | IC50 (Histone deacetylase 1) [µM]
1 | CC(=O)N(O)CCCCCNC(=O)CCC(=O)N(O)CCCCCNC(=O)CCC(=O)N(O)CCCCCN1C(=O)c2cccc3cccc(c23)C1=O [BIQD-substituted compound, S1] |  | 258
2 | CC(=O)N(O)CCCCCNC(=O)CCC(=O)N(O)CCCCCN1C(=O)c2cccc3cccc(c23)C1=O [BIQD-substituted compound, S5] | 2340 | 314
3 | CC(=O)N(O)C/C=C/c1cccc(Oc2ccccc2)c1 [N-(3-phenoxycinnamyl)acetohydroxamic acid] | 17.1 | 

The next lines start with the values.

Row | IC50 (Lipoxygenase) [µM] | IC50 (Histone deacetylase 1) [µM] | Structure (SMILES)
4 | 212 |  | O=C(CCCCCN1C(=O)c2cccc3cccc(c23)C1=O)NO [6-(1,3-Dioxo-1H,3H-benzo[de]isoquinolin-2-yl)-hexanoic acid hydroxyamide]
5 | 58.9 | 172 | CC(=O)N(O)CCCCCN1C(=O)c2cccc3cccc(c23)C1=O [BIQD-substituted compound, S2]
